One series has as its target T1, human SGLT2 (Homo sapiens, UniProt P31639).
T1 construct: host or cells: Xenopus oocytes
T1 sequence (P31639 1-672): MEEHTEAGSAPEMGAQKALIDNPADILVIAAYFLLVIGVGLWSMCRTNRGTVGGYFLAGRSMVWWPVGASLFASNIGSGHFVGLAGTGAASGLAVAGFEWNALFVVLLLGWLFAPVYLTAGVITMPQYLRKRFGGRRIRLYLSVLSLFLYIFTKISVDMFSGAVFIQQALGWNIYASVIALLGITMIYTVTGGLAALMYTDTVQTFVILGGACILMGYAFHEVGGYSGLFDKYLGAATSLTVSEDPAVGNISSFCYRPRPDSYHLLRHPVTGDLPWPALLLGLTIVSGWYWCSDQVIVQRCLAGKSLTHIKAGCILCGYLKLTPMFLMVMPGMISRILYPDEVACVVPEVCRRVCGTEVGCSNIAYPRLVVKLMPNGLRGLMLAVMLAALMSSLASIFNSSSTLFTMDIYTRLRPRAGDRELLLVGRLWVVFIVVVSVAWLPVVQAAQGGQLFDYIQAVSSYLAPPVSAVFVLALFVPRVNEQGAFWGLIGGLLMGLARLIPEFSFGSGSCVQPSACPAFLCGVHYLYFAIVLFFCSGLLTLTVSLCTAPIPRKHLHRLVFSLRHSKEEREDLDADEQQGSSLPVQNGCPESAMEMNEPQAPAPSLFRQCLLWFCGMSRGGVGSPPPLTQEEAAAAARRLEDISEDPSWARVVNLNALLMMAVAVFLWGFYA
The settings on record: Xenopus oocytes; cited from earlier work.

Series [1] is described as follows: HbA1c status in ZDF rat (Table 72). The series is classed as in vivo. Conditions: ZDF rats, 400 nM/kg i.p. once a week for twelve weeks; compared to PBS and control. The procedure: (§1) ISIS 388625, 388626 and control oligo ISIS 388628 were analyzed for their effect on ZDF rat plasma glucose levels and HbA1c. The leptin receptor deficient Zucker diabetic fatty (ZDF) rat is a useful model for the investigation of type 2 diabetes. Diabetes develops spontaneously in these male rats at ages 8-10 weeks, and is associated with hyperphagia, polyuria, polydipsia, and impaired weight gain, symptoms which parallel the clinical symptoms of diabetes (Phillips M S, et al., 1996, Nat Genet. 13, 18-19). Six week old ZDF rats were injected intraperitoneally with short antisense compound at a dose of 400 nM/kg once a week for twelve weeks. Data are illustrated in Tables 71 and 72.

Series [2] concerns mouse SGLT2 mRNA. Nature of the series: Mouse SGLT2 mRNA in kidney, additional 1-10-1 and 2-8-2 MOE gapmers (Table 68). The class given is in vivo. The settings on record: Balb/c mouse kidney. The procedure: 1-10-1 and 2-8-2 MOE gapmer short antisense compounds were designed to target different regions of the mouse SGLT2 RNA but have complementarity across species. […] All cytidine residues are 5-methylcytidines.
The short antisense compounds were analyzed for their effect on mouse SGLT2 mRNA levels in vivo. Data was taken from three experiments in which male 6-week old Balb/c mice were dosed twice per week for three weeks with 0.5, 0.1, or 0.02 umol/kg of either a 1-10-1 or 2-8-2 MOE gapmer given by intraperitoneal injection. Mice were sacrificed 48 hours following last administration and evaluated for SGLT2 levels in kidney. Target levels were determined by RT, real-time PCR as described by other examples herein. PCR results were normalized to an internal ISIS control.

Series [3] is described as follows: Standard glucose tolerance test and urinary glucose excretion in dog. The class given is in vivo. The settings on record: standard glucose tolerance test, on average, compared to saline controls. The procedure:
(§2) ISIS 388625 is a 2-8-2 MOE Gapmer with sequence […] (SEQ ID NO: 246) (e.g. see Table 71). The effect of ISIS 388625 on dog SGLT2 mRNA levels. Data are taken from two dosing groups in which a total of nine male beagle dogs were dosed with either one or ten mg/kg/week of ISIS 388625 or saline given by subcutaneous injection twice weekly. On day 46 of the study all dogs were sacrificed and evaluated for SGLT2 levels in kidney. Target levels were determined by quantitative RT, real-time PCR as described by other examples herein. PCR results were normalized to an internal ISIS control.
Even greater reduction can be achieved at slightly higher doses. […] Peak plasma glucose levels were decreased by over 50% on average and the subsequent drop in glucose was lessened compared to saline controls in a standard glucose tolerance test.

Series [4] relates to mouse SGLT2 mRNA. Kind of series: Mouse SGLT2 mRNA in kidney, MOE versus Methyleneoxy BNA gapmers (Table 69). The series is classed as in vivo. Conditions: Balb/c mouse kidney. The procedure: The effect of ISIS 3796921-10-1 MOE gapmer and ISIS 3886252-8-2 MOE gapmer are compared with the effect of ISIS 3921701-10-1 Methyleneoxy BNA Gapmer and ISIS 3921732-8-2 Methyleneoxy BNA Gapmer (see Table 69) on mouse SGLT2 mRNA levels in vivo. Data are taken from three experiments in which male 6-week old Balb/c mice were dosed twice per week for three weeks with 5, 25 and 125 nmol/kg of either the ISIS 3796921-10-1 MOE gapmer or the ISIS 3886252-8-2 MOE gapmer given by intraperitoneal injection. Mice were sacrificed 48 hours following last administration and evaluated for SGLT2 mRNA levels in kidney. Target levels were determined by RT, real-time PCR as described by other examples herein. PCR results were normalized to an internal ISIS control. The data are expressed as percent change (“+” indicates an increase, “−” indicates a decrease) relative to saline treated animals and are illustrated in Table 69.

Another series relates to dog SGLT2 mRNA. Kind of series: Dog SGLT2 mRNA levels in kidney (Table 73). The class given is in vivo. The settings on record: 1 mg/kg/wk dose. As to the method:
as §2

The test system of another series is rat SGLT2 mRNA. Nature of the series: Rat SGLT2 mRNA in kidney, 1-10-1 and 2-8-2 MOE gapmer (Table 70). The series is classed as in vivo. Conditions: Sprague-Dawley rat kidney. The procedure:
The effect of ISIS 3796921-10-1 MOE gapmer and ISIS 388625 MOE 2-8-2 gapmer (see Table 70) on rat SGLT2 mRNA levels in vivo. […] Rats were sacrificed 48 hours following last administration and evaluated for SGLT2 levels in kidney. Target levels were determined by RT, real-time PCR as described by other examples herein. PCR results were normalized to an internal ISIS control.

The nature of series [5]: Plasma glucose in ZDF rat (Table 71). The series is classed as in vivo. Conditions: ZDF rats, 400 nM/kg i.p. once a week for twelve weeks; compared to PBS and control. The procedure:
as §1

Strand notation (5' to 3'): a small letter for the sugar, then the base; units joined by * are phosphorothioate-linked, units joined directly phosphodiester-linked; [ ] holds rarer units or linkages, { } end groups; capitals alone tell only the bases. e = 2'-O-(2-methoxyethyl) (MOE); [5mC] = 5-methylcytosine; d = 2'-deoxy (DNA)

On to `O=C(CCc1ccc(O)cc1)c1c(O)cc(O)cc1O[C@@H]1O[C@H](CO)[C@@H](O)[C@H](O)[C@H]1O` [phlorizin], for which the transport activity result on human SGLT2 was “suppressed”.

For the compound “ISIS 388625: TGTTCCAGCCCA 2-8-2 MOE Gapmer, SGLT2 (eT*eG*dT*dT*d[5mC]*d[5mC]*dA*dG*d[5mC]*d[5mC]*e[5mC]*eA)”, the HbA1C entry in series [1] is recorded as “significantly reduced”. Further, the “% change in SGLT2 expression relative to saline” value with mouse SGLT2 mRNA [2] (0.02 umol/kg i.p. twice per week for three weeks) is listed as −65%; in the series with mouse SGLT2 mRNA [2] (0.1 umol/kg i.p. twice per week for three weeks), −88%; with mouse SGLT2 mRNA [2] (0.5 umol/kg i.p. twice per week for three weeks), −90%; in the series with rat SGLT2 mRNA (dose 3.125 umol/kg [sic] i.p. twice per week for three weeks), “+25%”; with rat SGLT2 mRNA (dose 12.5 umol/kg [sic] i.p. twice per week for three weeks), −15%; in the series with rat SGLT2 mRNA (dose 50 umol/kg [sic] i.p. twice per week for three weeks) it was −65%. For the same compound, the “% change in SGLT2 expression relative to saline” value in the series on rat SGLT2 mRNA (dose 200 umol/kg [sic] i.p. twice per week for three weeks) is listed as −80%. In addition, the “Peak plasma glucose levels decreased” value in series [3] is “over 50%”. The “SGLT2 mRNA, percent change relative to saline treated animals” value in the series on mouse SGLT2 mRNA [4] (5 nmol/kg i.p. twice per week for three weeks) was −18%; with mouse SGLT2 mRNA [4] (25 nmol/kg i.p. twice per week for three weeks) it was −47%; with mouse SGLT2 mRNA [4] (125 nmol/kg i.p. twice per week for three weeks) it was −70%. The “reduction of SGLT2 mRNA” value in the series with dog SGLT2 mRNA is on record as “greater than 80%”. For the same compound, the Plasma glucose levels entry in series [5] is on record as “significantly reduced”.

Source of the values: patent US8372967B2, “Compounds and methods for modulating expression of GCCR” (Isis Pharmaceuticals, Inc., priority 2006, dated 2013).
